Patent publication US7579356B2, “Thia-tetraazaacenaphthylene kinase inhibitors” (Janssen Pharmaceutica NV, priority 2005, dated 2009)

Columns and labels:
[1] = biological target: T1, Lyn kinase (human) (Homo sapiens, UniProt P07948); test: Lyn Kinase Assay; type: biochemical; conditions: test concentration of 2 μM; for % Inhibition (Lyn): 2 µM
T1 construct: purchased Upstate Biotechnology, Lake Placid, N.Y
In short: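 Radiometric filter-binding assay with recombinant human Lyn, poly(Glu,Tyr) substrate (0.1 mg/mL final), 5 μM ATP plus γ-33P-ATP in MOPS pH 7.5/Mg acetate buffer; 40 min at 30 °C, stopped with phosphoric acid, counted by scintillation. Reported as percent inhibition at 2 μM, with IC50 (μM) where determined.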

[2] = system: HCT-116 colon carcinoma; test: Cell Proliferation Inhibition Assay, HCT-116 (14C-thymidine); type: cell-based; conditions: Homo sapiens, HCT-116 cell proliferation
From the text: Cell Proliferation Inhibition Assay
The ability of a test compound to inhibit unregulated cell proliferation may be determined by measuring incorporation of ^14C-labelled thymidine into newly synthesized DNA within cell lines derived from carcinomas originating from several tissues. Accordingly, the effect of a test compound on proliferation of cells with a variety of phenotypes may be determined.
Carcinoma cell lines used include the HeLa cervical adenocarcinoma from the American Type Culture Collection (ATCC Cat. #CCL2), A375 malignant melanoma (ATCC Cat. #CRL-1619), HCT-116 colon carcinoma (ATCC Cat. #CCL-247), SKBR3 breast carcinoma (ATCC Cat. #HTB-30) and BT474 breast carcinoma (ATCC Cat. #HTB-20).
The carcinoma cells were trypsinized and counted. The cells (3000-8000 count) were added to each well of a 96-well CytoStar tissue culture treated scintillating microplate (Amersham #RPNQ0160) in complete medium (100 μL) and the plate was then incubated in complete medium for 24 hrs at 37° C. in an inert atmosphere containing 5% CO2.
Test compound (1 μL) in 100% DMSO was added to the plate test-wells with DMSO only added to control-wells. The plate was incubated in complete medium for a second 24 hr period at 37° C. in an atmosphere containing 5% CO2.
An aliquot of a solution of Methyl ^14C-thymidine (56 mC/mmol) (NEN #NEC568 or AMersham #CFA532) and complete medium (20 uL to provide 0.2 μCl/well) was then added to each well and the plate was incubated for a third 24 hr period at 37° C. in an atmosphere containing 5% CO2.
The plate contents were then discarded, the plate washed twice with PBS (200 μL) and then PBS (200 μL) was added to each well. The plate was sealed and the degree of methyl ^14C-thymidine incorporation was quantified on a Packard Top Count.
Cell proliferation of the Hela cell line was measured using the ATP-Lite method as described in the ATP Lite Kit (Perkin-Elmer Kit Number 6106941) or the C^14 method as described above. Cell proliferation of the other cell lines was measured using the C^14 method.

[3] = biological target: T2, EGFR (Homo sapiens, UniProt P00533); test: EGFR Kinase Assay; type: biochemical; conditions: for IC50: GST-EGFR, ATP 5 μM; for inhibition at 2 µM: test concentration of 2 μM, compounds without an IC50, read-out: EGFR inhibition in percent
T2 construct: The intracellular portion of EGFR started at nucleotide 2189 (corresponding to amino acid 667) and ended at the termination codon; made in house; host or cells: Sf9 insect cells (baculovirus)
T2 sequence (P00533 669-1210 limits assumed): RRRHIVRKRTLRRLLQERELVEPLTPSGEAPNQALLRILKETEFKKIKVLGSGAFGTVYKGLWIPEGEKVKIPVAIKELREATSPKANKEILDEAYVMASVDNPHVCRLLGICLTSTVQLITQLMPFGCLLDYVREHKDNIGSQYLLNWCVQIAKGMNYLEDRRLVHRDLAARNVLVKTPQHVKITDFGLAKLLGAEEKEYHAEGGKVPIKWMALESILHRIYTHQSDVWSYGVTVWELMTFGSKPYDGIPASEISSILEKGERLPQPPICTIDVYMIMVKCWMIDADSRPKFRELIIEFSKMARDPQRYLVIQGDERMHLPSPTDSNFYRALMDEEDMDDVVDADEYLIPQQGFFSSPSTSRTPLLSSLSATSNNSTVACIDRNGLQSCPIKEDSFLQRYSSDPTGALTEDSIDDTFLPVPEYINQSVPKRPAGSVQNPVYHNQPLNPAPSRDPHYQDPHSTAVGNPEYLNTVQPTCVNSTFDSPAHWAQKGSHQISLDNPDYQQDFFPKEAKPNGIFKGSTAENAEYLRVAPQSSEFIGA
In short: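 GST-fused human EGFR intracellular domain (from aa 667), Sf9-expressed, phosphorylated biotinylated polyGluTyr with 5 μM ATP plus γ-33P ATP in Tris pH 8.0, MgCl2, vanadate, 1 mM DTT, 1 h at 30 °C. Streptavidin Flashplate scintillation read; triplicate 16-point half-log series from 200 uM; IC50 from % inhibition vs log concentration, else % inhibition at 2 μM.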

T1 sequence (P07948 whole entry): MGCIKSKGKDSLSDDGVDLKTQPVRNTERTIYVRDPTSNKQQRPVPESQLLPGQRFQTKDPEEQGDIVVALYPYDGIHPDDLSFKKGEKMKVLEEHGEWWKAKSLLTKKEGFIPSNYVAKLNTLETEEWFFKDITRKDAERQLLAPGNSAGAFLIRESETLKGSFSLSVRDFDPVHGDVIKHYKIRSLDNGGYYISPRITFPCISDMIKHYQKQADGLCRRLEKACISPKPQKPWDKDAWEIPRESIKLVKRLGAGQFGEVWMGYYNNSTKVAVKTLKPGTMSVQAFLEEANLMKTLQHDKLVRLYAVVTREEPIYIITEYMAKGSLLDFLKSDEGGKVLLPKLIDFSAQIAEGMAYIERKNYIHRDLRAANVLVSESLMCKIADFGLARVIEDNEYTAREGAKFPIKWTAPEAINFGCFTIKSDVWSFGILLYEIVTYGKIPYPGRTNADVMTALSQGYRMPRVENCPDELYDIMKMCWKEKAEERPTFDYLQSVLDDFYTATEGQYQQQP

Structure (SMILES)	inhibition at 2 µM [1] [%]	IC50 [2] [µM]	IC50 [3] [µM]	% Inhibition (Lyn) [1] [%]	inhibition at 2 µM [3] [%]
CC(C)(C)OC(=O)N1CCC(NC(=O)c2sc3ncnc4c3c2NC(=O)N4c2ccc3c(ccn3Cc3cccc(F)c3)c2)CC1 [Cpd 91, 4-({5-[1-(3-fluoro-benzyl)-1H-indol-5-yl]-4-oxo-4,5-dihydro-3H-1-thia-3,5,6,8-tetraaza-acenaphthylene-2-carbonyl}-amino)-piperidine-1-carboxylic acid tert-butyl ester]	7	10	0.168	–	–
O=C(Nc1ccc(N2CCOCC2)cc1)c1sc2ncnc3c2c1NC(=O)N3c1ccc2c(ccn2Cc2cccc(F)c2)c1 [Cpd 94, 5-[1-(3-fluoro-benzyl)-1H-indol-5-yl]-4-oxo-4,5-dihydro-3H-1-thia-3,5,6,8-tetraaza-acenaphthylene-2-carboxylic acid (4-morpholin-4-yl-phenyl)-amide]	3	100	0.264	–	–
O=C(NCCCN1CCOCC1)c1sc2ncnc3c2c1NC(=O)N3c1ccc2c(ccn2Cc2cccc(F)c2)c1 [Cpd 95, 5-[1-(3-fluoro-benzyl)-1H-indol-5-yl]-4-oxo-4,5-dihydro-3H-1-thia-3,5,6,8-tetraaza-acenaphthylene-2-carboxylic acid (3-morpholin-4-yl-propyl)-amide]	18	10	0.069	–	–
CCOC(=O)c1sc2ncnc3c2c1NC(=O)N3c1ccc(Oc2ccc(F)cc2)cc1 [Cpd 101, 5-[4-(4-fluoro-phenoxy)-phenyl]-4-oxo-4,5-dihydro-3H-1-thia-3,5,6,8-tetraaza-acenaphthylene-2-carboxylic acid ethyl ester]	3	100	–	6	18
CCOC(=O)c1sc2ncnc3c2c1NC(=O)N3c1ccc(C)c(Br)c1 [Cpd 102, 5-(3-bromo-4-methyl-phenyl)-4-oxo-4,5-dihydro-3H-1-thia-3,5,6,8-tetraaza-acenaphthylene-2-carboxylic acid ethyl ester]	8	100	–	13	17
Cc1ccc(N2C(=O)Nc3c(C(=O)NC4CCN(C)CC4)sc4ncnc2c34)cc1Br [Cpd 116, 5-(3-bromo-4-methyl-phenyl)-4-oxo-4,5-dihydro-3H-1-thia-3,5,6,8-tetraaza-acenaphthylene-2-carboxylic acid (1-methyl-piperidin-4-yl)-amide]	-2	10	0.146	–	–
Cc1ccc(Br)cc1N1C(=O)Nc2c(C(=O)NC3CCN(C)CC3)sc3ncnc1c23 [Cpd 117, 5-(5-bromo-2-methyl-phenyl)-4-oxo-4,5-dihydro-3H-1-thia-3,5,6,8-tetraaza-acenaphthylene-2-carboxylic acid (1-methyl-piperidin-4-yl)-amide]	12	100	1.78	–	–
CN1CCC(NC(=O)c2sc3ncnc4c3c2NC(=O)N4c2ccc(Oc3ccc(F)cc3)cc2)CC1 [Cpd 118, 5-[4-(4-fluoro-phenoxy)-phenyl]-4-oxo-4,5-dihydro-3H-1-thia-3,5,6,8-tetraaza-acenaphthylene-2-carboxylic acid (1-methyl-piperidin-4-yl)-amide]	12	10	0.132	–	–

Further lines, results first:

inhibition at 2 µM [1] [%]	IC50 [2] [µM]	IC50 [3] [µM]	% Inhibition (Lyn) [1] [%]	inhibition at 2 µM [3] [%]	Structure (SMILES)
16	10	0.07	–	–	O=C(NCCN1CCOCC1)c1sc2ncnc3c2c1NC(=O)N3c1ccc2c(ccn2Cc2cccc(F)c2)c1 [Cpd 93, 5-[1-(3-fluoro-benzyl)-1H-indol-5-yl]-4-oxo-4,5-dihydro-3H-1-thia-3,5,6,8-tetraaza-acenaphthylene-2-carboxylic acid (2-morpholin-4-yl-ethyl)-amide]
69	100	0.043	–	–	Cc1ccc(N2C(=O)Nc3c(C(=O)Nc4ccc(CN5CCOCC5)cc4)sc4ncnc2c34)cc1Br [Cpd 108, 5-(3-bromo-4-methyl-phenyl)-4-oxo-4,5-dihydro-3H-1-thia-3,5,6,8-tetraaza-acenaphthylene-2-carboxylic acid (4-morpholin-4-ylmethyl-phenyl)-amide]
75	10	0.344	–	–	Cc1ccc(Br)cc1N1C(=O)Nc2c(C(=O)Nc3ccc(CN4CCOCC4)cc3)sc3ncnc1c23 [Cpd 109, 5-(5-bromo-2-methyl-phenyl)-4-oxo-4,5-dihydro-3H-1-thia-3,5,6,8-tetraaza-acenaphthylene-2-carboxylic acid (4-morpholin-4-ylmethyl-phenyl)-amide]
21	10	0.034	–	–	O=C(Nc1ccc(CN2CCOCC2)cc1)c1sc2ncnc3c2c1NC(=O)N3c1ccc(Oc2ccc(F)cc2)cc1 [Cpd 110, 5-[4-(4-fluoro-phenoxy)-phenyl]-4-oxo-4,5-dihydro-3H-1-thia-3,5,6,8-tetraaza-acenaphthylene-2-carboxylic acid (4-morpholin-4-ylmethyl-phenyl)-amide]
